Measured values from PMC10185643, “Improved LC–MS identification of short homologous peptides using sequence-specific retention time predictors” (Analytical and Bioanalytical Chemistry, 2023).

Assay: Reversed-phase LC-MS experimental retention time of short peptides
Assay type: physicochemical
Details: for RT: experimental retention time, reversed-phase LC-MS, Table S1, column Source gives the peptide's origin (1-4 = synthesis route of homologous peptides, enzyme)
Description: All analyses were performed on an UltiMate 3000 RS chromatography system equipped with a UV detector, connected to a Q-Exactive Plus Hybrid Quadrupole-Orbitrap mass spectrometer (Thermo Fischer Scientific, Waltham, MA, USA). An Xselect Peptide CSH C18 130 Å column (particle size 2.5 µm, dimensions 150 × 2.1 mm, Waters, Etten-Leur, the Netherlands) with associated VanGuard pre-column was used for the separations. The analytes were eluted at a flow rate of 0.35 ml/min using a linear gradient of water (solvent A) and acetonitrile (solvent B) both fortified with 0.1% formic acid. […] The column temperature was maintained at 40 °C and the auto-sampler at 4 °C. The injection volume was 5 µL.
The sheath gas was set to 48 arbitrary units, the auxiliary gas was set to 11 arbitrary units, and the spray voltage was set to 3.7 kV. The mass spectrometer was set to operate in full-scan MS data-dependent MS^2 (ddMS^2) mode. Full-scan spectra were acquired at a resolution of 70.000 in the m/z range 80–1200 using a maximum ion injection time of 100 ms, unless stated otherwise. […] The maximum injection time was set to 150 ms, and a normalized stepped collision energy was applied of 15, 30 and 45 arbitrary units.

Substance | RT | RT (retention time) (Table S1, Source: enzyme, experimental reversed-phase LC-MS retention time, decimal comma)
CLVR | 4,57 | –
KCEVF | 4,52 | –
CPFD | – | 13,62
